1 compound from PMC5445473, “Identification of Enterococcus faecalis enzymes with azoreductases and/or nitroreductase activity” (BMC Microbiology, 2017) can be followed below.

What all share (test): LC-ESI-MS of natively purified enzyme; activity of apo-enzyme restored by FMN
What all share (type): binding
What all share (conditions): native purification; apo-enzyme assay with 5 uM FMN, pH 7, 35 °C

Test [1] deals with T1, EF0655 (Enterococcus faecalis, UniProt Q838B7).
T1 construct: gene EF_0655; E. coli XL1Blue; about 22 kDa; forward primer starts after the initiator Met
T1 sequence (Q838B7 2-198): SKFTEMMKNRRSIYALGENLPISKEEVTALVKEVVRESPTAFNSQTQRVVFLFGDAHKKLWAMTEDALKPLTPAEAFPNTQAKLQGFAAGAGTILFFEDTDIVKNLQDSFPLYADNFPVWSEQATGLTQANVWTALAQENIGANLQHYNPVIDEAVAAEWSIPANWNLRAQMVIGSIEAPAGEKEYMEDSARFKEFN

Test [2] addresses T2, EF0648 (Enterococcus faecalis, UniProt Q838C2).
T2 construct: gene EF_0648; E. coli XL1Blue; about 25 kDa
T2 sequence (Q838C2 2-205): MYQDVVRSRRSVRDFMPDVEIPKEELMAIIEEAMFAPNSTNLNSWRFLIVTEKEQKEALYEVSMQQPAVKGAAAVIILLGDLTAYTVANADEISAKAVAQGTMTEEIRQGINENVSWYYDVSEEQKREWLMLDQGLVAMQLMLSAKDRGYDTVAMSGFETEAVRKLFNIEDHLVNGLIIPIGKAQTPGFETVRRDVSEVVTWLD

In test [3] the target is T3, EF0404 (Enterococcus faecalis, UniProt Q838N5).
T3 construct: gene EF_0404; E. coli XL1Blue; about 25 kDa; forward primer starts after the initiator Met
T3 sequence (Q838N5 2-211): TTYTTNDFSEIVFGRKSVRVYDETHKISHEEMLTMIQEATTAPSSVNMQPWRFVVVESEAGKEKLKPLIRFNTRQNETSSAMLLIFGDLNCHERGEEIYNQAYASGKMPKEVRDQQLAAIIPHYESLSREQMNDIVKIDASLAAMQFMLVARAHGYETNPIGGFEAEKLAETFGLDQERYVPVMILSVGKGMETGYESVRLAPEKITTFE

Test [4] addresses T4, EF1181 (Enterococcus faecalis, UniProt Q836D4).
T4 construct: gene EF_1181; E. coli XL1Blue; about 30 kDa; forward primer starts after the initiator Met
T4 sequence (Q836D4 2-244): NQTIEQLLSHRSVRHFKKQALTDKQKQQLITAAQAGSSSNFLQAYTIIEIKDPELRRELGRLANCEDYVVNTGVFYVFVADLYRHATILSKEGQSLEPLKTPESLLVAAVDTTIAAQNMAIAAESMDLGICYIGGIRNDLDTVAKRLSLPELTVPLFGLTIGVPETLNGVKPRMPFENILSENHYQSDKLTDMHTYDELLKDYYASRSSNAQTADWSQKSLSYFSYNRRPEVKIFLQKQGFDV

Test [5] addresses T5, AzoA (Enterococcus faecalis, UniProt Q831B2).
T5 construct: gene azoR; E. coli XL1Blue; about 25 kDa; forward primer starts after the initiator Met

T5 sequence (Q831B2 2-208): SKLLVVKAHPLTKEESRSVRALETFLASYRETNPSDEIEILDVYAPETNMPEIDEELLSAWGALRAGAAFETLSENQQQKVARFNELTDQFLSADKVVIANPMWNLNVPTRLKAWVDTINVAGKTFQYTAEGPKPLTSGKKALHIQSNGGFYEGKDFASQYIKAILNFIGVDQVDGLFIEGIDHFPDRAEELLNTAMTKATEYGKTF

On to `Cc1cc2nc3c(=O)[nH]c(=O)nc-3n(C[C@H](O)[C@H](O)[C@H](O)COP(=O)(O)O)c2cc1C` [FMN], for which the “LC-ESI-MS of natively purified enzyme; activity of apo-enzyme restored by FMN” value in test [1], in test [2], in test [3], in test [4] and in test [5] was “confirmed FMN presence for the enzymes purified using native conditions” in each case.
